From patent US9034812B2, “Compositions and methods for treating biofilms” (Ohio University, priority 2011, dated 2015)

Legend:
[1] = system: D. vulgaris (ATCC 7757) SRB biofilm; assay: Prevention of SRB biofilm establishment (Example 2): sessile cell count (MPN) and SEM; format: cell-based, Desulfovibrio vulgaris; conditions: 100 ppm, alone, 7 days; for Sessile SRB cells on coupon (SEM), biofilm prevention: full-strength medium
Protocol: D. vulgaris (ATCC 7757), a common SRB strain, was used in this example. Before inoculation, the culture media were autoclave sterilized and then sparged with filter-sterilized nitrogen for at least 45 minutes to remove dissolved oxygen. SRB growth was carried out in 125 ml anaerobic vials (Catalog No. 223748, Wheaton Industries Inc., Millville, N.J., USA) filled with 100 ml culture medium. In the test, 1 ml SRB seed culture was used to inoculate each anaerobic vial to achieve an SRB concentration of 10^6 cells/ml right after inoculation. The full-strength ATCC 1249 medium with 200 ppm Fe^2+ was used to grow SRB biofilm on coupon surfaces.
It was neutralized to pH 7.0 by adding a sodium hydroxide solution. Coin shaped C1018 carbon steel coupons with a top exposed surface area of 1.12 cm^2 were used as substratum for SRB growth. The side and bottom surfaces were coated with inert Teflon. The top surface was polished sequentially by 200, 400, and 600 grit abrasive papers. Nitrogen sparging was used to remove dissolved oxygen in all liquids and to provide an anaerobic environment in a glove box. 100 ppm L-cysteine (Fisher Scientific, Pittsburgh, Pa., USA) was added to the culture media as an oxygen scavenger to mitigate any possible oxygen leak.
One milliliter of SRB seed culture was added at the beginning of the tests and the vials were sealed and incubated at 37° C. without shaking. After 7 days, the coupons were taken out and examined for sessile SRB cells.
(§1) The procedure to prepare a coupon for SEM observation of a biofilm on a coupon surface was described by Wen et al., Inter. Biodeter. Biodegr., (2009), 63:1102-1106. […] Thus, an SEM image was taken after searching for a spot with the most sessile cells. The cells seen in the SEM images should not be used to count the sessile cells because of uneven distribution. Instead, the Most Probable Number (MPN) method was used to enumerate sessile cells. SEM images could be used as qualitative visual confirmation of biofilm removal.
(§2) Viable D. vulgaris cells can be seen as motile cells under a light microscope at 400×. Thus they can be counted using a hemocytometer. However, this method has a detection limit of 5×10^4 cells/ml minimum at 400× magnification. It is a standard practice to enumerate very low cell counts using the semi-quantitative most probable number (MPN) method with a liquid culture medium or a solid medium. The accuracy of MPN is typically 1 log in cell numbers. Thus, it takes at least a 2-log reduction to assure the efficacy of a biocide system. In this example, the sessile cells on a coupon were scraped and collected in a test tube by using the brush-like dipstick that was part of an SRB test kit (Sani-Check® Product #100 from Biosan Laboratories, Warren, Mich., USA). The dipstick was then soaked in 10 ml sterilized distilled water and vortexed for 30 s. Finally, the dipstick was inserted into the test kit's vial containing a solid SRB culture medium. The SRB sessile cell concentration was based on how long it took for the black color (FeS) to appear in the medium around the dipstick. The tests were repeated three separate times. Each time, two coupons were used for sessile SRB cell counting.

[2] = system: mature D. vulgaris (ATCC 7757) SRB biofilm; assay: Removal of established SRB biofilm, 1-h and 3-h simulated slug treatment (Example 2); format: cell-based, Desulfovibrio vulgaris; conditions: alone
Protocol: The full-strength ATCC 1249 medium was used to grow SRB biofilms on coupon surfaces first. […] In the anaerobic chamber, the coupons were taken out and rinsed with phosphate buffered saline (PBS) buffer to remove loose planktonic cells. The coupons were then placed into petri dishes containing treatment chemicals in a water solution. Some coupons were treated for 1 h and some for 3 h. This simulated slug treatment with a contact time lasting 1 and 3 h, respectively, as in the situation when a biocide slug flows inside a pipeline. Flow effect was not considered here. Exposing SRB cells on a coupon from the ATCC 1249 medium to a water solution lacking salt ions might cause osmotic shock that could interfere with the biocide efficacy evaluation. Instead of using PBS buffer commonly used in cell cultures, two salts in the original medium, MgSO4 and (NH4)2Fe(SO4)2, were added to the 1 and 3-h treatment solutions at ¼ of their corresponding concentrations in the full-strength ATCC 1249 medium. The treated coupons were then removed and examined for sessile SRB cells. The diluted medium was used here to simulate the residual nutrients retained by the local biofilms when the bulk pipeline or tank fluid is displaced by the biocide solution during a field treatment.
as §1, §2

[3] = system: D. vulgaris (ATCC 7757) SRB biofilm; assay: Prevention of SRB biofilm establishment on carbon steel coupons (Example 1): sessile cell count and SEM; format: cell-based, Desulfovibrio vulgaris; conditions: alone; for Sessile SRB cells on coupon surface (SEM), biofilm prevention: 7-day coupons
Protocol: D. vulgaris (ATCC 7757), a laboratory SRB strain, was cultured in ATCC 1249 medium. Quarter strength medium with only four key ingredients, i.e., MgSO4, sodium lactate, Fe(NH4)2(SO4)2 and yeast extract at concentrations ¼ of those in the full ATCC 1249 medium was also used to simulate a less nutritious environment. […] SRB culture media were sterilized in an autoclave and then deoxygenated using N2 (filter sterilized) sparging. SRB cells were enumerated using an SRB test kit (Sani-Check® Product #100, Biosan Laboratories, Warren, Mich., USA). […] Below this cell count, it is hard to catch an individual cell under the light microscope. The Most Probable Number (MPN) enumeration method is a standard method to estimate very low cell counts. MPN succeeds by growing the cells first and correlating the cell counts with the appearance of black color (due to FeS produced by SRB). […] The SRB test kit used in this example is equivalent to an MPN method using a solid medium instead of a liquid medium.
Anaerobic vials used in this example were 125 ml (Catalog No. 223748, Wheaton Industries Inc., 143 Millville, N.J., USA), each filled with 100 ml of culture medium. A glovebox filled with filter-sterilized N2 provided an anaerobic environment. To mitigate any possible oxygen leaks, 100 ppm L-cysteine (Fisher Scientific, Pittsburgh, Pa., USA), an oxygen scavenger, was added to the culture media. Thin disk shaped C1018 carbon steel coupons with a top disk surface area of 1.12 cm^2 were polished with 200, 400, and 600 grit abrasive papers progressively. Only the top surface of each coupon was exposed to the culture medium. The rest of the surfaces were coated with inert Teflon. After polishing, the coupons were weighed. The coupons were cleaned using isopropanol and then dried under UV light for 15 minutes.
Three duplicate coupons and 1 ml of a 3-day old SRB seed culture were added to each anaerobic vial. The initial SRB cell concentration in each vial immediately after inoculation was approximately 10^6 cells/ml. After adding treatment chemical(s) following inoculation, the vials were sealed and then incubated at 37° C. After 7 days of incubation, the biofilm on a coupon surface was observed under SEM. The procedure to prepare a coupon for SEM observation of a biofilm was described by Wen et al., Inter. […] Au coating of the biofilm covered coupon was necessary for SEM because the biofilm was not conductive. An SEM image was taken for the spot with most sessile cells after screening three duplicate coupons. A special control coupon was inserted in a vial containing the culture medium without biocide treatment and incubated without inoculation. This abiotic control would indicate yellow rust if an oxygen leak occurred. Its surface was also scanned for sessile cells under SEM for possible microbial contamination. Care was also taken to identify sessile cells that looked different from D. vulgaris during biofilm observation under SEM, which would indicate microbial contamination.
To obtain the average sessile cell density on a coupon surface, the sessile cells were first scraped off from the surface of a duplicate coupon onto a brush-like dipstick of the SRB test kit handled with sterile tweezers. The dipstick was wetted with deoxygenated water before scraping. Most of the sessile cells were collected by the dipstick. […]

[4] = system: D. vulgaris (ATCC 7757) SRB biofilm; assay: Mitigation of MIC pitting and weight loss of C1018 carbon steel coupons (Example 1); parameters: species or system Desulfovibrio vulgaris; conditions: 50 ppm, alone; 7 days
Source text: The coupons for SEM used in above in “Prevention of Biofilm Establishment” were reused to observe the MIC pitting after their biofilms and Au coating were removed using the Clark's solution. Coupon weight loss data were obtained from another duplicate coupon in each vial. The coupon surface was cleaned to remove biofilms and mineral deposits using the Clark's solution before weighing.

Compound: N[C@H](Cc1ccc(O)cc1)C(=O)O [D-tyrosine]
- Reduction of SRB sessile cells versus untreated control [1]: 1 log
- Sessile SRB cells on coupon (SEM), biofilm prevention [1]: completely ineffective
- Sessile SRB cells on coupon (SEM), 1-h shock treatment ([2]; 100 ppm, 1 h): left many sessile cells on the coupon surface
- Sessile cell count for 3-h treatment ([2]; 100 ppm): ≧10^5 cells/cm^2
- Sessile SRB cells on coupon surface (SEM), biofilm prevention ([3]; 10 ppm): not effective in preventing SRB biofilm formation

Compound: Tetrakis hydroxymethyl phosphonium sulfate [THPS]
- Kill of SRB sessile cells [1]: 99.999%
- Reduction of SRB sessile cells versus untreated control [1]: 5 log
- Sessile SRB cells on coupon (SEM), biofilm prevention [1]: partially effective
- Normalized coupon weight loss (average) [4]: 0.65 mg/cm^2
- Reduction of sessile SRB concentration versus control ([2]; 50 ppm, 1 h): 2 log
- Sessile SRB cells on coupon (SEM), 1-h shock treatment ([2]; 50 ppm, 1 h): numerous sessile SRB cells remained
- Sessile cell count for 1-h treatment ([2]; 50 ppm, 1 h): ≧10^4 cells/cm^2
- Sessile cell count for 3-h treatment ([2]; 50 ppm): ≧10^3 cells/cm^2
- Sessile SRB cells on coupon surface (SEM), biofilm prevention ([3]; 100 ppm): had sessile SRB cells on their surfaces

Compound: N[C@H](Cc1c[nH]c2ccccc12)C(=O)O [D-tryptophan]
- Sessile SRB cells on coupon surface (SEM), biofilm prevention ([3]; 100 ppm): ineffective

Compound: CC(C)C[C@@H](N)C(=O)O [D-leucine]
- Sessile cell count ([3]; 500 ppm, after 7 days, ATCC 1249 medium): ≧10^5 cells/cm^2

Compound: CSCC[C@@H](N)C(=O)O [D-methionine]
- Sessile SRB cells on coupon surface (SEM), biofilm prevention ([3]; 500 ppm): had sessile SRB cells on their surfaces
